# Measurements from patent US12617783B2, “Heterocyclic GLP-1R agonists” (BIOMEA FUSION, INC., priority 2024, dated 2026).
# Target: T1, human GLP-1R (Homo sapiens, UniProt P43220)
# T1 construct: host or cells: HEK293
# Test: GLP-1R cAMP assay (Example B1a, HTRF, 30 min at room temperature)
# Format: cell-based
# Details: cAMP accumulation in HEK293 expressing human GLP-1R, no BETP, 30 min room temperature (Method B1a, compounds ID 1-609), Table 1; read-out: EC50
# How it was run: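 Competitive HTRF read-out of cAMP after 30 min room-temperature stimulation, BETP absent, of human GLP-1R-HEK293 cells (1,000/well) in HEPES buffer with 500 μM IBMX and 0.1% BSA. Activation normalised to GLP-1(7-37) positive control. EC50 from 4-parameter non-linear regression.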
# T1 sequence (P43220 24-463): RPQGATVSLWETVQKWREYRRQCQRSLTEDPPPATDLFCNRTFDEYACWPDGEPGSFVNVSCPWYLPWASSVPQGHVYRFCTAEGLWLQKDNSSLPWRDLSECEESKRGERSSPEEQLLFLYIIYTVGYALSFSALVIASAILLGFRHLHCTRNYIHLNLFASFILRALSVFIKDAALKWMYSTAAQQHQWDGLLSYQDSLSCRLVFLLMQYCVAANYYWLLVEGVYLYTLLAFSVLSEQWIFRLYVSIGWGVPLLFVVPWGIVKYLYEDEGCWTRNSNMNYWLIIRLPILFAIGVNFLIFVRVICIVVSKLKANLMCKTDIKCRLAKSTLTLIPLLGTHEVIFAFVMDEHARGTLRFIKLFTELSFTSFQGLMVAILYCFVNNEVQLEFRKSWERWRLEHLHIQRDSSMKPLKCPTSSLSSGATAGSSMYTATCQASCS
row,Structure (SMILES),EC50
1,"Cc1cc(-n2nc3c(c2-n2ccn(-c4ccc5c(cnn5C)c4F)c2=O)[C@H](C)N(C(=O)c2cc4cc([C@H]5CCOC(C)(C)C5)ccc4n2[C@@]2(c4noc(=O)[nH]4)C[C@@H]2C)CCC3)cc(C)c1F [Compound 518, 3-[(1S,2S)-1-[5-[(4S)-2,2-dimethyltetrahydropyran-4-yl]-2-[(4S)-2-(4-fluoro-3,5-dimethyl-phenyl)-3-[3-(4-fluoro-1-methyl-indazol-5-yl)-2-oxo-imidazol-1-yl]-4-methyl-4,6,7,8-tetrahydropyrazolo[4,3-c]azepine-5-carbonyl]indol-1-yl]-2-methyl-cyclopropyl]-4H-1,2,4-oxadiazol-5-one]",73.5 nM
2,"Cc1cc(-n2nc3c(c2-n2ccn(-c4cc(F)c5c(cnn5C)c4F)c2=O)[C@@H]2COC[C@H](C3)N2C(=O)c2cc3cc(C4CCOC5(CC5)C4)ccc3n2[C@@]2(c3noc(=O)[nH]3)C[C@@H]2C)cc(C)c1F (stereo partly drawn) [Compound 242, 3-((1S,2S)-1-(2-((4R,8S)-3-(3-(4,7-difluoro-1-methyl-1H-indazol-5-yl)-2-oxo-2,3-dihydro-1H-imidazol-1-yl)-2-(4-fluoro-3,5-dimethylphenyl)-2,4,5,7,8,9-hexahydro-4,8-epiminooxocino [5,4-c]pyrazole-10-carbonyl)-5-(4-oxaspiro[2.5]octan-7-yl)-1H-indol-1-yl)-2-methylcyclopropyl)-1,2,4-oxadiazol-5 (4H)-one]",168 nM
3,"Cc1cc(-n2nc3c(c2-n2ccn(-c4ccc5c(cnn5C)c4F)c2=O)[C@@H]2CCC[C@H](C3)N2S(=O)(=O)c2cc3cc(C4CCOCC4)ccc3n2[C@]2(c3noc(=O)[nH]3)C[C@@H]2C)cc(C)c1F [Compound 534, 3-[(1R,2S)-1-[2-[[(1S,8R)-4-(4-fluoro-3,5-dimethyl-phenyl)-3-[3-(4-fluoro-1-methyl-indazol-5-yl)-2-oxo-imidazol-1-yl]-4,5,12-triazatricyclo[6.3.1.02,6]dodeca-2,5-dien-12-yl]sulfonyl]-5-tetrahydropyran-4-yl-indol-1-yl]-2-methyl-cyclopropyl]-4H-1,2,4-oxadiazol-5-one]",≥ 10000 nM
4,"Cc1cc(-n2nc3c(c2-n2ccn(-c4ccc5c(cnn5C)c4F)c2=O)[C@@H]2CC[C@H](C3)N2C(=O)c2cc3cc(N4CCOC(C)(C)C4)ccc3n2[C@@]2(c3noc(=O)[nH]3)C[C@@H]2C)cc(C)c1F [Compound 229, 3-((1S,2S)-1-(5-(2,2-dimethylmorpholino)-2-((4S,7R)-3-(3-(4-fluoro-1-methyl-1H-indazol-5-yl)-2-oxo-2,3-dihydro-1H-imidazol-1-yl)-2-(4-fluoro-3,5-dimethylphenyl)-2,4,5,6,7,8-hexahydro-4,7-epiminocyclohepta [c]pyrazole-9-carbonyl)-1H-indol-1-yl)-2-methylcyclopropyl)-1,2,4-oxadiazol-5 (4H)-one]",167 nM
5,"Cc1cc(-n2nc3c(c2-n2ccn(-c4cccc(C(N)=O)c4F)c2=O)[C@@H]2CC[C@H](C3)N2C(=O)c2cc3cc([C@H]4CCOC(C)(C)C4)ccc3n2[C@@]2(c3noc(=O)[nH]3)C[C@@H]2C)cc(C)c1F [Compound 422, 3-[3-[(1S,8R)-11-[5-[(4S)-2,2-dimethyltetrahydropyran-4-yl]-1-[(1S,2S)-2-methyl-1-(5-oxo-4H-1,2,4-oxadiazol-3-yl)cyclopropyl]indole-2-carbonyl]-4-(4-fluoro-3,5-dimethyl-phenyl)-4,5,11-triazatricyclo[6.2.1.02,6]undeca-2,5-dien-3-yl]-2-oxo-imidazol-1-yl]-2-fluoro-benzamide]",303 nM
6,"Cc1cc(-n2nc3c(c2-n2ccn(-c4ccc5c(cnn5C)c4F)c2=O)[C@@H]2CCC[C@H](C3)N2S(=O)(=O)c2cc3cc([C@H]4CCOC(C)(C)C4)ccc3n2C2(c3noc(=O)[nH]3)C[C@@H]2C)cc(C)c1F (stereo partly drawn) [Compound 527, 3-[(2S)-1-[5-[(4S)-2,2-dimethyltetrahydropyran-4-yl]-2-[[(1S,8R)-4-(4-fluoro-3,5-dimethyl-phenyl)-3-[3-(4-fluoro-1-methyl-indazol-5-yl)-2-oxo-imidazol-1-yl]-4,5,12-triazatricyclo[6.3.1.02,6]dodeca-2,5-dien-12-yl]sulfonyl]indol-1-yl]-2-methyl-cyclopropyl]-4H-1,2,4-oxadiazol-5-one]",975 nM
7,"Cc1cc(-n2nc3c(c2-n2ccn(-c4ccc5c(cnn5C)c4F)c2=O)[C@@H]2CC[C@H](C3)N2C(=O)c2cc3cc([C@@H]4CCOC5(CC5)C4)ccc3n2[C@@]2(c3noc(=O)[nH]3)C[C@H]2C)cc(C)c1F [Compound 541, 3-((1S,2R)-1-(2-((4S,7R)-3-(3-(4-fluoro-1-methyl-1H-indazol-5-yl)-2-oxo-2,3-dihydro-1H-imidazol-1-yl)-2-(4-fluoro-3,5-dimethylphenyl)-2,4,5,6,7,8-hexahydro-4,7-epiminocyclohepta [c]pyrazole-9-carbonyl)-5-((R)-4-oxaspiro[2.5]octan-7-yl)-1H-indol-1-yl)-2-methylcyclopropyl)-1,2,4-oxadiazol-5 (4H)-one]",≥ 10000 nM
8,"Cc1cc(-n2nc3c(c2-n2ccn(-c4ccc5c(cnn5C)c4Cl)c2=O)[C@@H]2CC[C@H](C3)N2C(=O)c2cc3cc([C@H]4CCOC(C)(C)C4)ccc3n2[C@@]2(c3noc(=O)[nH]3)C[C@@H]2C)cc(C)c1F [Compound 308, 3-((1S,2S)-1-(2-((4S,7R)-3-(3-(4-chloro-1-methyl-1H-indazol-5-yl)-2-oxo-2,3-dihydro-1H-imidazol-1-yl)-2-(4-fluoro-3,5-dimethylphenyl)-2,4,5,6,7,8-hexahydro-4,7-epiminocyclohepta [c]pyrazole-9-carbonyl)-5-((S)-2,2-dimethyltetrahydro-2H-pyran-4-yl)-1H-indol-1-yl)-2-methylcyclopropyl)-1,2,4-oxadiazol-5(4H)-one]",197 nM
9,"Cc1cc(-n2nc3c(c2-n2ccn(-c4ccc5c(cnn5C)c4F)c2=O)CN(C(=O)c2cc4cc([C@H]5CCOC(C)(C)C5)ccc4n2[C@@]2(c4noc(=O)[nH]4)C[C@@H]2C)CCC3)cc(C)c1F [Compound 416, 3-((1S,2S)-1-(5-((S)-2,2-dimethyltetrahydro-2H-pyran-4-yl)-2-(3-(3-(4-fluoro-1-methyl-1H-indazol-5-yl)-2-oxo-2,3-dihydro-1H-imidazol-1-yl)-2-(4-fluoro-3,5-dimethylphenyl)-2,4,5,6,7,8-hexahydropyrazolo[4,3-c]azepine-5-carbonyl)-1H-indol-1-yl)-2-methylcyclopropyl)-1,2,4-oxadiazol-5(4H)-one]",162 nM
10,"Cc1cc(-n2nc3c(c2-n2ccn(-c4ccc5c(cnn5C)c4F)c2=O)C2CCC(CC3)N2C(=O)c2cc3cc([C@H]4CCOC(C)(C)C4)ccc3n2[C@@]2(c3noc(=O)[nH]3)C[C@@H]2C)cc(C)c1F (stereo partly drawn) [Compound 522, 3-[(1S,2S)-1-[5-[(4S)-2,2-dimethyltetrahydropyran-4-yl]-2-[4-(4-fluoro-3,5-dimethyl-phenyl)-3-[3-(4-fluoro-1-methyl-indazol-5-yl)-2-oxo-imidazol-1-yl]-4,5,12-triazatricyclo[7.2.1.02,6]dodeca-2,5-diene-12-carbonyl]indol-1-yl]-2-methyl-cyclopropyl]-4H-1,2,4-oxadiazol-5-one]",≥ 10000 nM
11,"Cc1cc(-n2nc3c(c2-n2ccn(-c4cccc(C(N)=O)c4F)c2=O)[C@@H]2CC[C@H](C3)N2C(=O)c2cc3cc([C@H]4CCOC(C)(C)C4)ccc3n2C2(c3noc(=O)[nH]3)CC2)cc(C)c1F [Compound 125, 3-[3-[(1S,8R)-11-[5-[(4S)-2,2-dimethyltetrahydropyran-4-yl]-1-[1-(5-oxo-4H-1,2,4-oxadiazol-3-yl)cyclopropyl]indole-2-carbonyl]-4-(4-fluoro-3,5-dimethyl-phenyl)-4,5,11-triazatricyclo[6.2.1.02,6]undeca-2,5-dien-3-yl]-2-oxo-imidazol-1-yl]-2-fluoro-benzamide]",> 10000 nM
12,"Cc1cc(-n2nc3c(c2-n2ccn(-c4ccc5c(cnn5C)c4F)c2=O)[C@@H]2CC[C@H](C3)N2C(=O)c2cc3nc([C@H]4CCOC(C)(C)C4)ccc3n2[C@@]2(c3noc(=O)[nH]3)C[C@@H]2C)cc(C)c1F [Compound 217, 3-[(1S,2S)-1-[5-[(4S)-2,2-dimethyltetrahydropyran-4-yl]-2-[(1S,8R)-4-(4-fluoro-3,5-dimethyl-phenyl)-3-[3-(4-fluoro-1-methyl-indazol-5-yl)-2-oxo-imidazol-1-yl]-4,5,11-triazatricyclo[6.2.1.02,6]undeca-2,5-diene-11-carbonyl]pyrrolo[3,2-b]pyridin-1-yl]-2-methyl-cyclopropyl]-4H-1,2,4-oxadiazol-5-one]",907 nM
13,"Cc1cc(-n2nc3c(c2-n2ccn(-c4ccc5c(cnn5C)c4F)c2=O)[C@@H]2CC[C@H](C3)N2C(=O)c2cc3cc([C@H]4CCOC(C)(C)C4)ccc3n2[C@@]2(c3nnn[nH]3)C[C@@H]2C)cc(C)c1F [Compound 128, 1-((4S,7R)-9-(5-((S)-2,2-dimethyltetrahydro-2H-pyran-4-yl)-1-((1S,2S)-2-methyl-1-(1H-tetrazol-5-yl)cyclopropyl)-1H-indole-2-carbonyl)-2-(4-fluoro-3,5-dimethylphenyl)-2,4,5,6,7,8-hexahydro-4,7-epiminocyclohepta [c]pyrazol-3-yl)-3-(4-fluoro-1-methyl-1H-indazol-5-yl)-1H-imidazol-2 (3H)-one]",137 nM
14,"Cc1cc(-n2nc3c(c2-n2ccn(-c4ccc5c(cnn5C)c4F)c2=O)C2CCCC(C3)N2C(=O)c2cc3cc([C@H]4CCOC(C)(C)C4)ccc3n2[C@@]2(c3noc(=O)[nH]3)C[C@@H]2C)cc(C)c1F (stereo partly drawn) [Compound 427, 3-((1S,2S)-1-(5-((S)-2,2-dimethyltetrahydro-2H-pyran-4-yl)-2-(3-(3-(4-fluoro-1-methyl-1H-indazol-5-yl)-2-oxo-2,3-dihydro-1H-imidazol-1-yl)-2-(4-fluoro-3,5-dimethylphenyl)-4,5,6,7,8,9-hexahydro-2H-4,8-epiminocycloocta [c]pyrazole-10-carbonyl)-1H-indol-1-yl)-2-methylcyclopropyl)-1,2,4-oxadiazol-5 (4H)-one]",77.1 nM
